Assay results from US9771353B2, “Kinase inhibitors based upon N-alkyl pyrazoles” (RESPIVERT LIMITED, priority 2013, dated 2017).
pIC50: −log10 of the molar value.

What was measured:
PBMCs [1] = assay: LPS-induced TNFα/IL-8 release in PBMC cells, assay (b); assay type: cell-based; details: Homo sapiens, LPS-stimulated PBMCs, read-out: IC50 Values for Inhibition of Cytokine Release, PBMCs IL-8
Experimental: Peripheral blood mononuclear cells (PBMCs) from healthy subjects are separated from whole blood using a density gradient (Lymphoprep, Axis-Shield Healthcare). The PBMCs are seeded in 96 well plates and treated with compounds at the desired concentration for 2 hours before addition of 1 ng/mL LPS (Escherichia Coli 0111:B4 from Sigma Aldrich) for 24 hours under normal tissue culture conditions (37° C., 5% CO2). The supernatant is harvested for determination of IL-8 and TNFα concentrations by sandwich ELISA (Duo-set, R&D systems) and read on the fluorescence microplate reader (Varioskan® Flash, ThermoFisher Scientific).

PBMCs [2] = assay: IL-2 and IFN gamma release in CD3/CD28 stimulated PBMC cells, assay (c); assay type: cell-based; details: Homo sapiens, IFNγ, read-out: IC50 Values for Inhibition of Cytokine Release, PBMCs IFNγ
Experimental: PBMCs from healthy subjects are separated from whole blood using a density gradient (Lymphoprep, Axis-Shield Healthcare). Cells are added to a 96 well plate pre-coated with a mixture of CD3/CD28 monoclonal antibodies (0.3 μg/mL eBioscience and 3 μg/mL BD Pharmingen respectively). Compound at the desired concentration is then added to the wells and the plate left for 3 days under normal tissue culture conditions. Supernatants are harvested and IL-2 and IFN gamma release determined by Sandwich ELISA (Duo-set, R&D System). The IC50 is determined from the dose response curve.

p38 MAPKα = p38 MAPKα (Homo sapiens (Human), UniProt Q16539); assay: p38 MAPKα enzyme inhibition (FRET, Z-LYTE), Method 2; assay type: biochemical
Syk = Syk (Homo sapiens (Human), UniProt P43405); assay: Syk enzyme inhibition (FRET, Z-LYTE); assay type: biochemical
Experimental: (§1) The enzyme inhibitory activities of compounds disclosed herein are determined by FRET using synthetic peptides labelled with both donor and acceptor fluorophores (Z-LYTE, Invitrogen Ltd., Paisley, UK).
(§2) The inhibitory activities of compounds of the invention against c-Src and Syk enzymes (Invitrogen), are evaluated in a similar fashion to that described hereinabove. The relevant enzyme (3000 ng/mL or 2000 ng/mL respectively, 2.5 μL) is incubated with the test compound (either 4 μg/mL, 0.4 μg/mL, 0.04 μg/mL, or 0.004 μg/mL, 2.5 μL each) for 2 hr at RT. The FRET peptides (8 μM, 2.5 μL), and appropriate ATP solutions (2.5 μL, 800 μM for c-Src, and 60 μM ATP for Syk) are then added to the enzymes/compound mixtures and incubated for 1 hr. Development reagent (protease, 5 μL) is added for 1 hr prior to detection in a fluorescence microplate reader (Varioskan® Flash, ThermoFisher Scientific).
(§3) In all cases, the site-specific protease cleaves non-phosphorylated peptide only and eliminates the FRET signal. Phosphorylation levels of each reaction are calculated using the ratio of coumarin emission (donor) over fluorescein emission (acceptor), for which high ratios indicate high phosphorylation and low ratios indicate low phosphorylation levels.

d-U937 cells = assay: Accumulation of β catenin in d-U937 cells, assay (m); assay type: cell-based, human
Experimental: U937 cells, a human monocytic cell line, are differentiated into macrophage-type cells by incubation with PMA; (100 ng/mL) for between 48 to 72 hr. The cells are then incubated with either final concentrations of test compound or vehicle for 18 hr. The induction of β-catenin by the test compounds is stopped by replacing the media with 4% formaldehyde solution. Endogenous peroxide activity is neutralised by incubating with quenching buffer (100 μL, 0.1% sodium azide, 1% H2O2 in PBS with 0.05% Tween-20) for 20 min. The cells are washed with washing buffer (200 μL; PBS containing 0.05% Tween-20) and incubated with blocking solution (200 μL; 5% milk in PBS) for 1 hr, re-washed with washing buffer (200 μL) and then incubated overnight with anti-β-catenin antibody solution (50 μL) in 1% BSA/PBS (BD, Oxford, UK).
After washing with washing buffer (3×200 μL; PBS containing 0.05% Tween-20), cells are incubated with an HRP-conjugated secondary antibody solution (100 μL) in 1% BSA/PBS (Dako, Cambridge, UK) and the resultant signal is determined colourimetrically (OD: 450 nm with a reference wavelength of 655 nm) using TMB substrate (50 μL; R&D Systems, Abingdon, UK). This reaction is stopped by addition of 1N H2SO4 solution (50 μL). Cells are then washed with washing buffer and 2% crystal violet solution (50 μL) is applied for 30 min. After washing with washing buffer (3×200 μL), 1% SDS (100 μL) is added to each well and the plates are shaken lightly for 1 hr prior to measuring the absorbance at 595 nm (Varioskan® Flash, Thermo-Fisher Scientific).
The measured OD450-655 readings are corrected for cell number by dividing the OD450-655 by the OD595 readings. The percentage induction for each well is calculated relative to vehicle, and the ratio of induction normalised in comparison with the induction produced by a standard control comprising of N-(4-(4-(3-(3-tert-butyl-1-p-tolyl-1H-pyrazol-5-yl)ureido)naphthalen-1-yloxy)pyridin-2-yl)-2-methoxyacetamide (1 μg/mL) which is defined as 100%.

GSK3α = GSK3α (Homo sapiens (Human), UniProt P49840); assay: GSK 3α enzyme inhibition (FRET, Z-LYTE), Method 2; assay type: biochemical
Experimental: as §1
The inhibitory activities of compounds of the invention against the GSK 3α enzyme isoform (Invitrogen), are evaluated by determining the level of activation/phosphorylation of the target peptide. The GSK3-α protein (500 ng/mL, 2.5 μL) is mixed with the test compound (2.5 μL at either 4 μg/mL, 0.4 μg/mL, 0.04 μg/mL, or 0.004 μg/mL) for 2 hr at RT. The FRET peptide (8 μM, 2.5 μL), which is a phosphorylation target for GSK3α, and ATP (40 μM, 2.5 μL) are then added to the enzyme/compound mixture and the resulting mixture incubated for 1 hr. Development reagent (protease, 5 μL) is added for 1 hr prior to detection in a fluorescence microplate reader (Varioskan® Flash, ThermoFisher Scientific).
as §3
This method follows the same steps as Method 1 above, but utilises a shorter period of mixing of the test compound (105 minutes instead of 2 hours) with the GSK3-α protein.

c-Src = c-Src (Homo sapiens (Human), UniProt P12931); assay: c-Src enzyme inhibition (FRET, Z-LYTE); assay type: biochemical
Experimental: as §1
as §2, with “The” for “The inhibitory activities of compounds of the invention against c-Src and Syk enzymes (Invitrogen), are evaluated in a similar fashion to that described hereinabove. The”
as §3

HT29 cells = assay: IL-1β-induced IL-8 release in HT29 cells, assay (d); assay type: cell-based; details: Homo sapiens, HT-29, IL-1β-stimulated HT29 cells, read-out: IC50 Values for Inhibition of Cytokine Release, HT29 cells IL-8
Experimental: HT29 cells, a human colon adenocarcinoma cell line, are plated in a 96 well plate (24 hrs) and pre-treated with compounds at the desired concentration for 2 hours before addition of 5 ng/mL of IL-1β (Abcam) for 24 hours. Supernatants are harvested for IL-8 quantification by Sandwich ELISA (Duo-set, R&D System). The IC50 is determined from the dose response curve.

[3] = 1 μg/mL test compound, normalised to reference N-(4-(4-(3-(3-tert-butyl-1-p-tolyl-1H-pyrazol-5-yl)ureido)naphthalen-1-yloxy)pyridin-2-yl)-2-methoxyacetamide
[4] = 5 μg/mL test compound, normalised to the same reference compound
[5] = 10 μg/mL test compound, normalised to the same reference compound

Sequence of p38 MAPKα (Q16539 whole entry): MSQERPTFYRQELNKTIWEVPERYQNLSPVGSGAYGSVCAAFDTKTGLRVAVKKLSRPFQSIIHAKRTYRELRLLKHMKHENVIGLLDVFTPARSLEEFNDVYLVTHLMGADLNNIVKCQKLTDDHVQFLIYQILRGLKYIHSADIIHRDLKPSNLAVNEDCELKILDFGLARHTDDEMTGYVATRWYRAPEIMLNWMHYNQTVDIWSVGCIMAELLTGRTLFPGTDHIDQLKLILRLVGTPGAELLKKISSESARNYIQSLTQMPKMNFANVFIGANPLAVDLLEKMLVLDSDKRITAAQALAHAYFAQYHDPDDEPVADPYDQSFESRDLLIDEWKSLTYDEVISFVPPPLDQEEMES
Sequence of c-Src (P12931 whole entry, looked up): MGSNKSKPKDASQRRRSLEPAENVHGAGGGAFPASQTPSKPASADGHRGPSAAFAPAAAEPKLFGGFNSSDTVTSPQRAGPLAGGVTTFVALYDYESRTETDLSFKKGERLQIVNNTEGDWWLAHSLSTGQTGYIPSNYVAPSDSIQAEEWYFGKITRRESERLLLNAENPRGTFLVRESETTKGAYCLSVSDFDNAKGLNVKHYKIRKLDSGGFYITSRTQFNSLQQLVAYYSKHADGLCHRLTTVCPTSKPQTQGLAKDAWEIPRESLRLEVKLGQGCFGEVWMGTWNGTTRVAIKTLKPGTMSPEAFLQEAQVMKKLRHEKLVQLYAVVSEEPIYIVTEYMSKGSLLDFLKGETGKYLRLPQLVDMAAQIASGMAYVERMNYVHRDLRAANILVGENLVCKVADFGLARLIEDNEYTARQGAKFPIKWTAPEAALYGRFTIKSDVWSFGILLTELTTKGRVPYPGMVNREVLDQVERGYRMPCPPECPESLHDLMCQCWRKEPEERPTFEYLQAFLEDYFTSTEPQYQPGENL
Sequence of GSK3α (P49840 whole entry): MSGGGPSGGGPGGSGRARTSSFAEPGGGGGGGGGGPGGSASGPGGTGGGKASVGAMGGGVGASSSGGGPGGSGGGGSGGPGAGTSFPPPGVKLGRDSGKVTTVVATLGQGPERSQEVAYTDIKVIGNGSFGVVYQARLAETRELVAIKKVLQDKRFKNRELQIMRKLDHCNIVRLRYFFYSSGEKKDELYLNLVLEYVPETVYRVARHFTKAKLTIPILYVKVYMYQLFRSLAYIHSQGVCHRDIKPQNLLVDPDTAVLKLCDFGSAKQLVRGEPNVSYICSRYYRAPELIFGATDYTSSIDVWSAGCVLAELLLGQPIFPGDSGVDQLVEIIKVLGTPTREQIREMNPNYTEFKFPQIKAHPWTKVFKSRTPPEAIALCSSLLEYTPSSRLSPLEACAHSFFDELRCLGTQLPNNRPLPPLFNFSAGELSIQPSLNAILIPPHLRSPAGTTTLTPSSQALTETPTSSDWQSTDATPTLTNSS

Row | Compound | pIC50 (PBMCs [1]) | pIC50 (PBMCs [2]) | pIC50 (p38 MAPKα) | pIC50 (Syk) | % β-catenin induction (d-U937 cells; [3]) [%] | % β-catenin induction (d-U937 cells; [4]) [%] | % β-catenin induction (d-U937 cells; [5]) [%] | pIC50 (GSK3α) | pIC50 (c-Src) | pIC50 (HT29 cells)
1 | C#Cc1cc(Nc2nccc(Oc3ccc(NC(=O)Nc4cc(C(C)(C)C)nn4CC)c4ccccc34)n2)cc(C(=O)NCCOCCOCCOC)c1 [Example 8, 3-((4-((4-(3-(3-(tert-Butyl)-1-ethyl-1H-pyrazol-5-yl)ureido)naphthalen-1-yl)oxy)pyrimidin-2-yl)amino)-5-ethynyl-N-(2-(2-(2-methoxyethoxy)ethoxy)ethyl)benzamide] | 8.32 | 7.88 | 7.70 | < 6.00 | 2.5 | 4 | 3.5 | 5.51 | 8.30 | 
2 | C#Cc1cc(Nc2cc(Oc3ccc(NC(=O)Nc4cc(C(C)(C)C)nn4C)c4ccccc34)ccn2)cc(C(=O)NCCOCCOCCOC)c1 [Example 9, 3-((4-((4-(3-(3-(tert-Butyl)-1-methyl-1H-pyrazol-5-yl)ureido)naphthalen-1-yl)oxy)pyridin-2-yl)amino)-5-ethynyl-N-(2-(2-(2-methoxyethoxy)ethoxy)ethyl)benzamide] | 8.42 | 7.47 | 7.18 | < 6.00 | −2.5 | −1 | 4.5 | 4.91 | 7.28 | 7.74
3 | C#Cc1cc(Nc2nccc(Oc3ccc(NC(=O)Nc4cc(C(C)C)nn4C)c4ccccc34)n2)cc(C(=O)NCCN2CCOCC2)c1 [Example 10, 3-Ethynyl-5-((4-((4-(3-(3-isopropyl-1-methyl-1H-pyrazol-5-yl)ureido)naphthalen-1-yl)oxy)pyrimidin-2-yl)amino)-N-(2-morpholinoethyl)benzamide] | 7.81 |  | 8.05 | 6.09 |  |  |  | 4.85 | 8.10 | 6.57
4 | C#Cc1cc(Nc2nccc(Oc3ccc(NC(=O)Nc4cc(C(C)C)nn4C)c4ccccc34)n2)cc(C(=O)NCCOCCOCCOC)c1 [Example 11, 3-Ethynyl-5-((4-((4-(3-(3-isopropyl-1-methyl-1H-pyrazol-5-yl)ureido)naphthalen-1-yl)oxy)pyrimidin-2-yl)amino)-N-(2-(2-(2-methoxyethoxy)ethoxy)ethyl)benzamide] | 7.58 |  | 7.89 | < 6.00 |  |  |  | 5.02 | 8.05 | < 6.00
